Measurements reported in patent US8987486B2, “Trans-2-decenoic acid derivative and pharmaceutical agent containing the same” (Nagoya Industrial Science Research Institute, priority 2010, dated 2015).

What was measured:
[1] = tested on: paclitaxel-induced peripheral nerve disorder rats; experiment: von Frey test in paclitaxel-induced peripheral nerve disorder rats; type: in vivo; settings: Rattus norvegicus, ip; single intraperitoneal dose of 300 μ/kg; higher of the thresholds after 1 hour and 5 hours; normal threshold 15; read-out: Recovery rate of 50% reaction threshold value (%)
Procedure: The effect of the compound of the present invention was tested for a peripheral nerve disorder which is a side effect induced by the administration of paclitaxel (an anti-cancer agent) such as hyperesthesia including allodynia (severe pain induced by such tactile stimuli which usually cause no pain). The compound of the present invention was intraperitoneally administered to rats as a test drug to conduct a von Frey test.
Male SD rats of six weeks age (one group comprising six rats) were used as experimental animals and paclitaxel (2 mg/kg) was intraperitoneally administered every other day for four times in total to prepare paclitaxel-induced peripheral nerve disorder rats. During 18 and 25 days or during 20 to 27 days after initiation of paclitaxel administration, the test drug was intraperitoneally administered in a single dose of […] and the following von Frey test was conducted.
The rats of the above (1) were placed in a transparent acrylic cage with a wire-meshed floor and habituated for about three minutes and the 50% reaction threshold values to the mechanical stimulus of right hind limb were measured before administration of the test drug and after 1, 5 and 24 hours from initiation of the administration.
The measurement was conducted using von Frey filaments (manufactured by North Coast Medical Inc.) in accordance with the methods of Chaplan, et al. (Journal of Neuroscience Methods, vol. 53, no. 1, pages 55 to 63, 1994) and Dixon, et al. (Annual Review of Pharmacology and Toxicology, vol. 20, pages 441 to 462, 1980). […] The case where the rat escaped at the instance of removing the filament was also called positive. When the positive reaction was noted, stimulus was conducted similarly using a filament of one rank weaker while, when no reaction was noted, stimulus was conducted similarly using a filament of one rank stronger and the point when the reaction changed from negative to positive or from positive to negative was called the first two reactions. After that, stimulus was conducted for continuous four times by the same up-down method. A 50% reaction threshold value to the mechanical stimulus was measured using the reaction to the six stimuli in total and then (mean value)±(standard error) for each group was calculated. Incidentally, when stimulus reached by that of 15.0 g without positive reaction or, when positive reaction continued to 0.4 g, then 15.0 g or 0.25 g was adopted as each threshold value, respectively. With regard to the higher 50% reaction threshold value between the 50% threshold values after 1 hour and 5 hours from administration of a test drug, a recovery rate (%) of the 50% reaction threshold value was calculated by the following expression in which 15 was adopted as the normal threshold value. Recovery rate (%) of 50% reaction threshold value=[(50% reaction threshold value after 1 hour or 5 hours from administration of test drug)−(50% reaction threshold value before administration of test drug)]/[(Normal threshold value)−(50% reaction threshold value before administration of test drug)]

PC12 cells = experiment: Evaluation using PC12 cells; immunostaining method for MAPK phosphorylation; type: cell-based; settings: 30 minutes
Procedure: PC12 cells were stimulated using the compound of the present invention and the phosphorylation of MAPK was evaluated by means of immunostaining of the cells. The specific operation procedure is as follows.
A cover glass was placed on a 24-well plate followed by coating with poly-L-lysine. PC12 cells were seeded in a cell density of 50,000 cells/well. (The amount of the medium was 400 μL) On the first day after seeding the cells, the medium was exchanged to DMEM containing 1% fetal bovine serum (FBS) and 0.06% L-glutamine.
The compound which was previously diluted with DMSO was dissolved in 100 μl of medium. After 12 to 16 hours from the medium exchange, 100 μl out of 400 μl of the medium was removed from each well and, in place of that, 100 μl of a medium containing the compound was added.
After 30 minutes from the addition, fixation was conducted using 4% paraformaldehyde (PFA) for 10 minutes. The fixed cells were washed with a Tris-buffered saline (TBS) and a TBS containing 0.3% Triton X was added thereto followed by incubating at 37° C. for 30 minutes. This was washed with a TBS and blocked with a TBS containing 3% skim milk for 30 minutes (at room temperature).
This was washed with a TBS for one time and a primary antibody (anti-phospho-p42/44 MAPK antibody; cell signalings; #9102 being diluted with TBS to an extent of 1,000-fold) was added thereto followed by subjecting to the reaction at 4° C. for one night. The primary antibody was removed and washed with a TBS for three times. After that, the secondary antibody (Alexa 488 goat anti-rabbit antibody; Invitrogen: being diluted to an extent of 1,000-fold using a TBS containing 1% Block Ace) was added thereto and the reaction was conducted at room temperature for 3 hours. The secondary antibody was removed and, after washing with a TBS, fixation was conducted with 4% PFA for 1 hour.
This was washed with a TBS, Hoechst (diluted with a TBS to an extent of 2000-fold) was added thereto and nuclear staining was conducted. This was washed and mounted.
Taking the photographic pictures and counting the positive cells were conducted as follows. An all-in-one microscope (manufactured by Keyence) was used, exposing time for pMAPK (green) was made 1/2.8 s, the place was appropriately decided in a Hoechst-stained image and the pictures were taken. Four pictures per one glass sheet were taken.
Photoshop (Adobe) was used and the cells having above a certain luminance were judged to be positive. All cells were labeled using Hoechst 33342 manufactured by Invitrogen and the rate of pMAPK-positive cells in Hoechst-positive cells was calculated. (cf. Table 7)

Row | Compound | inhibition in vivo at 0.3 mg/kg [1] [%] | also measured
1 | CCCCCCC/C=C/C(=O)NC(CC)CCCCC (stereo not drawn) [Compound 25, (E)-N-(octan-3-yl) dec-2-enamide] | 33.7 | –
2 | CCCCCCC/C=C/C(=O)OCCSC(C)C [Compound 8, (E)-2-(isopropylthio)ethyl dec-2-enoate] | 32.2 | –
3 | CCCCCCC/C=C/C(=O)NCCN(CCCC)CCCC [Compound 41, (E)-N-2-(dibutylamino)ethyl dec-2-enamide] | 28.3 | –
4 | CCCCCCC/C=C/C(=O)NCCCCCC [Compound 22, (E)-N-hexyl dec-2-enamide] | 64.6 | –
5 | CCCCCCC/C=C/C(=O)OCCOCCN(C)C [Compound 12, (E)-2-(2-(dimethylamino)ethoxy)ethyl dec-2-enoate] | – | Rate of pMAPK-positive cells (%) (PC12 cells; 62.5 μg/mL): 11%; Rate of pMAPK-positive cells (%) (PC12 cells; 125 μg/mL): 17%; Rate of pMAPK-positive cells (%) (PC12 cells; 250 μg/mL): 9%; Rate of pMAPK-positive cells (%) (PC12 cells; 500 μg/mL): 29%
6 | CCCCCCC/C=C/C(=O)OCC(C)(C)CN(C)C [Compound 5, (E)-3-(dimethylamino)-2,2-dimethylpropyl dec-2-enoate] | – | Rate of pMAPK-positive cells (%) (PC12 cells; 62.5 μg/mL): 1%; Rate of pMAPK-positive cells (%) (PC12 cells; 125 μg/mL): 23%; Rate of pMAPK-positive cells (%) (PC12 cells; 250 μg/mL): 0%; Rate of pMAPK-positive cells (%) (PC12 cells; 500 μg/mL): 24%
7 | CCCCCCC/C=C/C(=O)NCCN(C(C)C)C(C)C [Compound 40, (E)-N-2-(diisopropylamino)ethyl dec-2-enamide] | 71.5 | –
8 | CCCCCCC/C=C/C(=O)NCCCN(C)C [Compound 38, (E)-N-3-(dimethylamino)propyl dec-2-enamide] | 52.1 | –
9 | CCCCCCC/C=C/C(=O)NC(CCC)CCC [Compound 24, (E)-N-(heptan-4-yl) dec-2-enamide] | 56.1 | –
10 | CCCCCCC/C=C/C(=O)NC(C)(C)CC(C)(C)C [Compound 26, (E)-N-(2,4,4-trimethylpentan-2-yl) dec-2-enamide] | 55.7 | –
11 | CCCCCCC/C=C/C(=O)SCCCCC [Compound 48, (E)-S-pentyl dec-2-enethioate] | 50.7 | –
12 | CCCCCCC/C=C/C(=O)NCCCCCCC [Compound 23, (E)-N-heptyl dec-2-enamide] | 28.6 | –
13 | CCCCCCC/C=C/C(=O)N(CCCCC)CCCCC [Compound 33, (E)-N,N-dipentyl dec-2-enamide] | 45.3 | –
14 | CCCCCCC/C=C/C(=O)NCCCCC [Compound 19, (E)-N-pentyl dec-2-enamide] | 73.7 | –
15 | CCCCCCC/C=C/C(=O)NCC(C)C [Compound 18, (E)-N-isobutyl dec-2-enamide] | 54.6 | –
16 | CCCCCCC/C=C/C(=O)SCCc1ccccc1 [Compound 54, (E)-S-phenethyl dec-2-enethioate] | 51.9 | –
17 | CCCCCCC/C=C/C(=O)SC1CCCC1 [Compound 53, (E)-S-cyclopentyl dec-2-enethioate] | 34.9 | –
18 | CCCCCCC/C=C/C(=O)NC(C)(C)CC [Compound 21, (E)-N-tert-pentyl dec-2-enamide] | 63.2 | –
19 | CCCCCCC/C=C/C(=O)N(CCCCCC)CCCCCC [Compound 34, (E)-N,N-dihexyl dec-2-enamide] | 48.3 | –
20 | CCCCCCC/C=C/C(=O)NCCCC [Compound 17, (E)-N-butyl dec-2-enamide] | 52.6 | –
21 | CCCCCCC/C=C/C(=O)N(CCCC)CCCC [Compound 32, (E)-N,N-dibutyl dec-2-enamide] | 70.6 | –
22 | CCCCCCC/C=C/C(=O)OCCOCC [Compound 10, (E)-2-ethoxyethyl dec-2-enoate] | 26.4 | –
23 | CCCCCCC/C=C/C(=O)OCCOC [Compound 9, (E)-2-methoxyethyl dec-2-enoate] | 51.4 | –
24 | CCCCCCC/C=C/C(=O)OC(C)CN(C)C (stereo not drawn) [Compound 3, (E)-1-(dimethylamino)propan-2-yl dec-2-enoate] | – | Rate of pMAPK-positive cells (%) (PC12 cells; 62.5 μg/mL): 0%; Rate of pMAPK-positive cells (%) (PC12 cells; 125 μg/mL): 12%; Rate of pMAPK-positive cells (%) (PC12 cells; 250 μg/mL): 14%; Rate of pMAPK-positive cells (%) (PC12 cells; 500 μg/mL): 14%
